Results published in PubChem BioAssay AID2060502 (Molecular Pharmacology Branch, DTP, NCI, 2025).

Tested on: 885724-159-R-J1-PDC complex spheroid viability
Assay: Anticancer human tumor 885724-159-R-J1-PDC patient-derived pancreatic adenocarcinoma cell line growth inhibition [GQUAD]
Details: for IC50: curve of first compound; for viability, T/C: stronger effect = lower value
How it was run: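 Viability of tumor cells grown as complex spheroids with endothelial and stromal cells, exposed to drug combinations. Top concentration at or near clinical Cmax (else 10 microM), diluted in half-log increments.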

[1] = second compound 0.0316 µM, first compound 0.0316 µM
[2] = second compound 0.0316 µM, first compound 0.1 µM
[3] = second compound 0.0316 µM, first compound 0.316 µM
[4] = second compound 0.0316 µM, first compound 1 µM
[5] = second compound 0.0316 µM, first compound 3.16 µM
[6] = second compound 0.0316 µM, first compound 10 µM
[7] = second compound 0.1 µM, first compound 0.0316 µM
[8] = second compound 0.1 µM, first compound 0.1 µM
[9] = second compound 0.1 µM, first compound 0.316 µM
[10] = second compound 0.1 µM, first compound 1 µM
[11] = second compound 0.1 µM, first compound 3.16 µM
[12] = second compound 0.1 µM, first compound 10 µM
[13] = second compound 0.316 µM, first compound 0.0316 µM
[14] = second compound 0.316 µM, first compound 0.1 µM
[15] = second compound 0.316 µM, first compound 0.316 µM
[16] = second compound 0.316 µM, first compound 1 µM
[17] = second compound 0.316 µM, first compound 3.16 µM
[18] = second compound 0.316 µM, first compound 10 µM
[19] = second compound 1 µM, first compound 0.0316 µM
[20] = second compound 1 µM, first compound 0.1 µM
[21] = second compound 1 µM, first compound 0.316 µM
[22] = second compound 1 µM, first compound 1 µM
[23] = second compound 1 µM, first compound 3.16 µM
[24] = second compound 1 µM, first compound 10 µM
[25] = second compound 3.16 µM, first compound 0.0316 µM
[26] = second compound 3.16 µM, first compound 0.1 µM
[27] = second compound 3.16 µM, first compound 0.316 µM
[28] = second compound 3.16 µM, first compound 1 µM
[29] = second compound 3.16 µM, first compound 3.16 µM
[30] = second compound 3.16 µM, first compound 10 µM
[31] = second compound 10 µM, first compound 0.0316 µM
[32] = second compound 10 µM, first compound 0.1 µM
[33] = second compound 10 µM, first compound 0.316 µM
[34] = second compound 10 µM, first compound 1 µM
[35] = second compound 10 µM, first compound 3.16 µM
[36] = second compound 10 µM, first compound 10 µM
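Also: spheroids exposed to agents for seven days before readout.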
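For viability, T/C in this document: percent of vehicle control viability where 100% = DMSO wells.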

Structure (SMILES): C#Cc1c(F)ccc2cc(O)cc(-c3ncc4c(N5CC6CCC(C5)N6)nc(OCC56CCCN5CC(F)C6)nc4c3F)c12 (stereo unspecified) + Cc1[nH]c2ccc(F)cc2c1-c1nc2c3cccnc3c3ncccc3c2[nH]1
- IC50 (second compound 0.0316 µM): 4.05 µM
- IC50 (second compound 0.1 µM): 3.75 µM
- IC50 (second compound 0.316 µM): 4.07 µM
- IC50 (second compound 1 µM): 3.55 µM
- IC50 (second compound 3.16 µM): < 0.0316 µM
- IC50 (second compound 10 µM): 4.5 µM
- viability, T/C [1]: 97%
- viability, T/C [2]: 89.2%
- viability, T/C [3]: 90.3%
- viability, T/C [4]: 76.1%
- viability, T/C [5]: 57.5%
- viability, T/C [6]: 23.4%
- viability, T/C [7]: 101%
- viability, T/C [8]: 97.8%
- viability, T/C [9]: 102%
- viability, T/C [10]: 87.4%
- viability, T/C [11]: 54.6%
- viability, T/C [12]: 24.9%
- viability, T/C [13]: 94.5%
- viability, T/C [14]: 80.4%
- viability, T/C [15]: 85.4%
- viability, T/C [16]: 62.9%
- viability, T/C [17]: 63.1%
- viability, T/C [18]: 28%
- viability, T/C [19]: 72.5%
- viability, T/C [20]: 69.2%
- viability, T/C [21]: 75%
- viability, T/C [22]: 59.4%
- viability, T/C [23]: 54.2%
- viability, T/C [24]: 29.5%
- viability, T/C [25]: 18.4%
- viability, T/C [26]: 8.81%
- viability, T/C [27]: 12.7%
- viability, T/C [28]: 11.5%
- viability, T/C [29]: 9.79%
- viability, T/C [30]: 6.07%
- viability, T/C [31]: 63.1%
- viability, T/C [32]: 75.8%
- viability, T/C [33]: 66%
- viability, T/C [34]: 61.2%
- viability, T/C [35]: 63.2%
- viability, T/C [36]: 21.7%

Structure (SMILES): COc1cc(C2c3cc4c(cc3C(OC3OC5COC(C)OC5C(O)C3O)C3COC(=O)C23)OCO4)cc(OC)c1O (stereo unspecified) + CN(C)c1ccc(Nc2c3ccc(NC(=O)CCN4CCCC4)cc3nc3cc(NC(=O)CCN4CCCC4)ccc23)cc1
- IC50 (second compound 0.0316 µM): > 10 µM
- IC50 (second compound 0.1 µM): > 10 µM
- IC50 (second compound 0.316 µM): > 10 µM
- IC50 (second compound 1 µM): > 10 µM
- IC50 (second compound 3.16 µM): > 10 µM
- IC50 (second compound 10 µM): > 10 µM
- viability, T/C [1]: 94.3%
- viability, T/C [2]: 90.8%
- viability, T/C [3]: 84.4%
- viability, T/C [4]: 87.6%
- viability, T/C [5]: 73.3%
- viability, T/C [6]: 72.6%
- viability, T/C [7]: 114%
- viability, T/C [8]: 87.2%
- viability, T/C [9]: 83.2%
- viability, T/C [10]: 81.8%
- viability, T/C [11]: 80.6%
- viability, T/C [12]: 69.4%
- viability, T/C [13]: 104%
- viability, T/C [14]: 82.9%
- viability, T/C [15]: 90.8%
- viability, T/C [16]: 89.5%
- viability, T/C [17]: 76.3%
- viability, T/C [18]: 64.2%
- viability, T/C [19]: 91.6%
- viability, T/C [20]: 86.1%
- viability, T/C [21]: 70.4%
- viability, T/C [22]: 76.6%
- viability, T/C [23]: 76%
- viability, T/C [24]: 60.4%
- viability, T/C [25]: 73.1%
- viability, T/C [26]: 63.1%
- viability, T/C [27]: 69.5%
- viability, T/C [28]: 56.6%
- viability, T/C [29]: 63.4%
- viability, T/C [30]: 57.8%
- viability, T/C [31]: 73.4%
- viability, T/C [32]: 74%
- viability, T/C [33]: 68.2%
- viability, T/C [34]: 82.6%
- viability, T/C [35]: 71.4%
- viability, T/C [36]: 56.6%

Structure (SMILES): Nc1ccn(C2OC(CO)C(O)C2(F)F)c(=O)n1 (stereo unspecified) + Cc1cnc(CNC(=O)c2c(=O)c3ccc(N4CCCN(C)CC4)nc3n3c2sc2ccccc23)cn1
- IC50 (second compound 0.0316 µM): > 10 µM
- IC50 (second compound 0.1 µM): > 10 µM
- IC50 (second compound 0.316 µM): > 10 µM
- IC50 (second compound 1 µM): > 10 µM
- IC50 (second compound 3.16 µM): > 10 µM
- IC50 (second compound 10 µM): > 10 µM
- viability, T/C [1]: 105%
- viability, T/C [2]: 104%
- viability, T/C [3]: 82%
- viability, T/C [4]: 98.1%
- viability, T/C [5]: 74.9%
- viability, T/C [6]: 70.3%
- viability, T/C [7]: 96.8%
- viability, T/C [8]: 113%
- viability, T/C [9]: 82.9%
- viability, T/C [10]: 82.4%
- viability, T/C [11]: 81.5%
- viability, T/C [12]: 84.4%
- viability, T/C [13]: 97%
- viability, T/C [14]: 97.9%
- viability, T/C [15]: 88.6%
- viability, T/C [16]: 78.3%
- viability, T/C [17]: 89.9%
- viability, T/C [18]: 78.8%
- viability, T/C [19]: 85.5%
- viability, T/C [20]: 87.4%
- viability, T/C [21]: 80.2%
- viability, T/C [22]: 77%
- viability, T/C [23]: 69.2%
- viability, T/C [24]: 70.6%
- viability, T/C [25]: 75%
- viability, T/C [26]: 76.3%
- viability, T/C [27]: 78%
- viability, T/C [28]: 62.9%
- viability, T/C [29]: 70.9%
- viability, T/C [30]: 68.4%
- viability, T/C [31]: 72.4%
- viability, T/C [32]: 75.1%
- viability, T/C [33]: 71.4%
- viability, T/C [34]: 69.2%
- viability, T/C [35]: 70.9%
- viability, T/C [36]: 74.8%
